Data: US10753924B2, “Method for selecting patients responsive for cancer treatments” (Mitogro OÜ, priority 2016, dated 2020)
Marks after values point to notes of the source that are not given here.

Legend:
[1] = test system: permeabilized MCF-7 cells; experiment: Citrate efflux from permeabilized MCF-7 cells (induction phase in Oroboros oxygraph, enzymatic citrate measurement); type: cell-based, human; conditions: 4.56 × 10^6 cells/ml
Method: Stock culture of MCF-7 cells was obtained from American Type Culture Collection (ATCC® Number: HTB-22™). The cells were grown as adherent monolayers in big T75 flasks (Greiner Bio-One GmbH, Germany) in low glucose (1.0 g/L) DMEM with stable L-glutamine (PAA Laboratories GmbH, Austria) that was supplemented with 1 mM Na-pyruvate (Gibco®, REF 11360-039), 10% heat-inactivated fetal bovine serum (FBS), […] human recombinant insulin (Gibco) and antibiotics: penicillin (100 U/ml), streptomycin (100 μg/ml) and gentamicin at a final concentration of 50 μg/ml. MCF-7 cells were grown and maintained at 37° C. in a humidified incubator containing 5% CO2 in air. The cells were sub-cultured at 2-3 day intervals.
MCF-7 cells were harvested from 5 T75 flasks (72 h after their seeding at a subculturing ratio of 1/5) by means of accutase (a cell detachment agent) treatment.
After detachment, the cell were washed twice with Mitomed-B solution (see Table 2), supplemented with lmg/ml bovine serum albumin (BSA) and 3-5 μM leupeptin (protease inhibitor) with centrifugation (on a Heraus “Biofuge primo R” refrigerated centrifuge equipped with a swing-out rotor, 150×g for 7 min at 4° C.). After washing, the pellet was resuspended in 2.5 ml of Mitomed-B (supplemented with lmg/ml BSA and 3-5 μM leupeptin) and the cells were stored on melting ice.
The experiments were carried out in an Oroboros oxygraph. Two parallel chambers on the same device were used. Reaction medium was Lahus-B as described below (Table 3).
Saponine concetration suitable for viability of MCF-7 cells was defined as 30 μg/ml. Malate, 2 mM, was present in all protocols in the reaction medium. BMS303141 was used to inhibit activity of ATP-citratelyase to stop it from metabolizing free citrate that accumulates to the reaction medium. 1,2,3-benzenetricarboxylic acid was used to stop citrate efflux from mitochondria. Saponine incubation time was 5 minutes. Cytochrome c and CAT were injected to the reaction medium right at the end of the experiment to assess the quality of mitochondrial inner and outer membranes. […]

[2] = test system: permeabilized human breast cancer fibers; experiment: Citrate efflux from permeabilized fibers derived from human breast cancer clinical sample; type: cell-based
Method: In order to reach experiment targets, the sarcolemma and plasma membranes in skinned tumor fibers were completely permeabilized by saponin treatment keeping the mitochondrial membranes intact (both tumor and healthy tissue samples from the same patient were processed equally). Namely, skinned fibers were transferred into plastic vials with pre-cooled (on ice) Lahus-A (Table 8) containing 50 μg/ml saponin and incubated with mild stirring (at 40 rpm) for 30 min at 4° C. Permeabilized fibers were then washed in pre-cooled solution Lahus-B (Table 3) for 5 min under mild stirring; this washing procedure was performed three times to completely remove saponin and all soluble metabolites. The washed samples were placed into Lahus-B (Table 3) and kept in the same medium (at 4° C.) until use.
The experiments were carried out in an Oroboros oxygraph. Two parallel chambers on the same device were used. Reaction medium was Lahus-B (Table 3).
Saponine concetration suitable for viability of skinned breast cancer fibers was defined as 50 μg/ml. Malate, 2 mM, was present in all protocols in the reaction medium. BMS303141 was used to inhibit activity of ATP-citrate lyase to stop it from metabolizing free citrate that accumulates to the reaction medium. 1,2,3-benzenetricarboxylic acid was used to stop citrate efflux from mitochondria. Cytochorome c and CAT were injected to the reaction medium right at the end of the experiment to assess the quality of mitochondrial inner and outer membranes.
Duration of the induction phase: 1 hour.
Once the induction medium was ended, the reaction medium was transferred to 2.5 ml Eppendorf tube for centrifugation (14 000 rpm, 7 minutes). Fiber was removed from the reaction medium and weighted for calculations. The supernatant from the centrifugation was collected through syringe filter and stored on ice. Remaining debris was discarded as biological waste.
900 μl of each supernatant was used to enzymatically measure concentration of citrate as described before (Petrarulo et al, 1995).

In the case of `O=C(O)c1cccc(C(=O)O)c1C(=O)O` [1,2,3-BTC, 1,2,3-benzenetricarboxylic acid], the citrate efflux ([1]; protocol 2: glutamate 5 mM + malate 2 mM, 1,2,3-BTC 1 mM, 1 hour induction (without inhibitor: 1428)) is reported as 1098 ng citrate per 10^6 cells per, the citrate efflux ([1]; protocol 4: pyruvate 0.05 mM + malate 2 mM, 1,2,3-BTC 1 mM, 1 hour induction (without inhibitor: 5564)) is reported as 1524 ng citrate per 10^6 cells per and the citrate efflux ([1]; protocol 6: PalCar 40 μM + malate 2 mM, 1,2,3-BTC 1 mM, 1 hour induction (without inhibitor: 3059)) is reported as 1156 ng citrate per 10^6 cells per. For the same compound, the “effect on citrate accumulation in the reaction medium” value ([2]; permeabilized human breast cancer fibers, 1,2,3-BTC 1 mM) was “blocked the citrate accumulation in the reaction medium”, the citrate efflux ([2]; protocol 2: Glut/Mal, 1,2,3-BTC 1 mM, cancer fibers, footnote: result below detection limit (without inhibitor: 144.1, 172.1)) was 41.7** ng citrate/mg × 60 min and the citrate efflux ([2]; protocol 4: Pyr/Mal, 1,2,3-BTC 1 mM, cancer fibers, footnote: result below detection limit (without inhibitor: 194.6)) was 17.6** ng citrate/mg × 60 min. The citrate efflux ([2]; protocol 6: Palcar/Mal, 1,2,3-BTC 1 mM, cancer fibers (without inhibitor: 158.7)) was 73.7 ng citrate/mg × 60 min.
